Assay results taken from patent US6958324B2, “Inosine compounds and their use for treating or preventing an inflamation or a reperfusion disease” (Inotek Pharmaceuticals Corporation, priority 1998, dated 2005).
Marks after values point to notes of the source that are not given here.

Assays:
DSS mice [1] = assay: DSS colitis, inosine versus 5′-IMS at 50, 100 and 300 μmoles/kg/day; format: in vivo; details: for protection against colonic shortening / protection against visible histological damage: 50, 100 and 300 μmoles/kg/day, vs vehicle treated DSS animals; for dose at which colonic MDA levels were reduced: first statement ('For example'); for dose at which MDA levels were reduced (second statement, 'Similarly'): second statement of b313
Source text: The effect of various doses (50, 100 and 300 μmoles/kg/day) inosine and IMS on the outcome of DSS (dextran sodium sulfate) colitis in mice. Colonic length, gross histologic score, colonic MDA content and colonic MPO content have been determined. N=10 animals per experimental groups. *p<0.05 and **p<0.01 indicates significant improvements in drug treated DSS animals, when compared to vehicle treated DSS animals. Mean +SEM are presented, except for histological scores, which are presented as medians.
Significant improvements in 5′-IMS treated DSS animals was observed as compared to vehicle treated DSS animals. Mean ±SEM are shown, except for the histological scores, which are presented as medians.

DBA/1J mice [2] = assay: Collagen-induced arthritis: incidence and severity; format: in vivo
Procedure: The effect of 5′-IMS in a murine model system of collagen-induced arthritis was studied. Male DBA/1J mice were injected intradermally on day 1 with 0.1 mL of an emulsion of bovine type II collagen plus complete Freunds's adjuvant (CFA). A second injection was administered on day 21. Treatment with 5′-IMS (100 or 200 mg/kg/day, BID) per gavage was begun on the day of the second collagen/CFA injection and continued throughout the study, which was terminated on day 45 (24 days after the second injection).
(§1) Mice were evaluated daily for arthritis by using a macroscopic scoring system ranging from 0-4 (0=no signs of arthritis, 1=swelling or redness of the paw or one digit, 2=two joints involved, 3=more than 2 joints involved, 4=severe arthritis of the entire paw). The arthritic index for each mouse was calculated by adding the four scores of the individual paws. […] At study termination, paws were removed from all animals in each treatment group and randomly assigned to MPO, MDA or chemokines/cytokine measurements.
Arthritis was induced in DBA/1J mice by two 100 μL sub-dermal injections of a 1:1 mixture of bovine collagen type II (1 mg/mL) and complete Freund's adjuvant (1 mg/mL) 21 days apart. Gavage treatment with 5′-IMS (100 or 200 mg/kg/day, BID) commenced on the day of the second injection. […] Statistical analysis was performed by Student's t-test or fisher's exact test as appropriate. […]

DBA/1J mice [3] = assay: Collagen-induced arthritis: chemokine and cytokine levels in paws; format: in vivo; details: 200 mg/kg/day gavage, 24 days after second collagen injection
Procedure: as §1
The effect of 5′-IMS on the levels of the chemokine MIP-1α and the cytokines 1L-12 and TNF-α in paws of DBA/1J mice treated with subdermal injections of collagen to induce arthritis was studied. Gavage treatment with 5′-IMS (100 or 200 mg/kg/day, BID) commenced on the day of the second collagen injection and paws were taken 24 days later and homogenized for analysis. […] Data are expressed as mean ±SEM from n=10 animals. […] Accordingly, 5′-IMS, an illustrative inosine compound, is useful for treating or preventing an inflammation disease, particularly arthritis, in a patient.

DBA/1J mice [4] = assay: Collagen-induced arthritis: MPO and MDA levels in paws; format: in vivo; details: 100 or 200 mg/kg/day, BID, gavage; paws 24 days after second collagen injection
Procedure: as §1
The effect of 5′-IMS on the levels of MPO and MDA in paws of DBA/1J mice treated with subdermal injections of collagen to induce arthritis was studied. Gavage treatment with 5′-IMS (100 or 200 mg/kg/day, BID) commenced on the day of the second collagen injection and paws were taken 24 days later and homogenized for MPO and MDA measurements. Data are expressed as mean ±SEM from n=10 animals. […] Accordingly, 5′-IMS, an illustrative inosine compound, is useful for treating or preventing an inflammation disease, particularly arthritis, in a patient.

[5] = system: peritoneal macrophages stimulated with LPS/IFN-γ; assay: IL-12 and TNF production by stimulated peritoneal macrophages exposed to inosine; format: cell-based
Procedure: To determine the effect of inosine on inflammatory cytokine production, stimulated macrophages were exposed to inosine at 0 to 1000 μM, after which production of cytokines IL-12 and TNF was measured.

male BALB/c mice = assay: Plasma cytokine levels after LPS challenge in endotoxemic mice; format: in vivo; details: 100 mg/kg i.p. 30 min before LPS 70 mg/kg i.p.
Procedure: To determine whether inosine inhibits inflammatory cytokine release in vivo, male BALB/c mice were injected with inosine (100 mg/kg; i.p.) followed 30 minutes later by an i.p. injection of LPS (70 mg/kg). Plasma levels of the different cytokines were measured at various times (90 mm 2 h, 4 h, and 8 h) after the LPS challenge.
The results are shown in FIGS. 1A-E. Data are mean ±SEM of n=8 mice. The asterisk in the figure indicates p<0.05. […] Inosine was also shown to augment IL-10 (FIG. 1E) production in endotoxemic mice. […] Inosine inhibits the production of proinflammatory cytokines, but also potentiates the formation of the anti-inflammatory IL-10. Accordingly, inosine is useful for treating or preventing an inflammation disease or a reperfusion disease.

BALB/c mice = assay: LPS-induced lethality (survival) in mice; format: in vivo; details: 100 mg/kg 30 min before 70 mg/kg i.p. LPS; 24-96 h; p<0.05 vs vehicle
Procedure: Because inosine skewed the cytokine response towards an anti-inflammatory profile, the ability of inosine to decrease LPS-induced lethality in a murine model system was investigated. BALB/c mice were pretreated with drug vehicle (physiologic saline) or 100 mg/kg inosine 30 min before the injection of 70 mg/kg of i.p. LPS. Survival was recorded at 24, 48, 72, and 96 h after the LPS injection. Results from the summary of two different experiments are shown. N=16 animals in each group. Inosine improved survival rate at 24-96 h (p<0.05). Therefore, inosine conferred significant protection in this endotoxemic model. Thus, inosine is useful for treating or preventing an inflammation disease or a reperfusion disease.

STZ diabetic mice = assay: Streptozotocin-induced diabetes: blood glucose, diabetes incidence, pancreatic insulin content; format: in vivo
Procedure: The effect of inosine was in a […] model of streptozotocin-induced diabetes was examined. Mice were treated with streptozotocin (40 mg/kg in citrate buffer) or vehicle (citrate buffer) i.p. for 5 consecutive days to induce diabetes. Blood glucose was monitored over the following 21 days using a one-touch blood glucose meter (Lifescan). […] Hyperglycemia was defined as non-fasting blood glucose level higher than 200 mg/dL. Mice were treated simultaneously with streptozotocin injection throughout the 21 days of the experiments and with vehicle or inosine (100 mg/kg oral gavage, twice a day). Samples of pancreas were removed on day 21 and weighed before being placed into 6 mls of acid ethanol (23:7:0.45 ethanol:dH2O:HCl) and homogenized. The pancreas samples were incubated for 72 h at 4° C. before being centrifuged. The insulin content of the supernatant was then determined using an ELISA assay.
An “*” indicates significant reduction of circulating glucose or diabetes incidence in the inosine-treated streptozotocin rats when compared to vehicle-treated streptozotocin rats (p<0.05).
An “*” in TABLE 7 indicates significant decreases in insulin content in response to streptozotocin when compared to control, and a “#” indicates significant preservation of pancreatic insulin content in the inosine-treated streptozotocin rats (p<0.05). Pancreatic insulin content at 21 days in streptozotocin diabetic mice receiving vehicle or inosine treatment.

DSS mice [6] = assay: DSS-induced inflammatory bowel disease model, inosine treatment; format: in vivo; details: 5% DSS 10 days, inosine 200 mg/kg/day orally
Procedure: The effect of inosine in a mouse model of inflammatory disease was examined. Inosine was administered (oral administration, 100 mg/kg, 2 times a day), in a mouse model of inflammatory bowel disease induced by dextran sulfate solution (DSS). This system is well-characterized and is considered a reliable model of inflammatory bowel disease. Efficacy of a pharmaceutical compound in this model is taken as evidence that the compound is likely to be effective in human beings (Sasaki et al., Scand. J. Immunol. 51:23-8,2000; Gaudio et al, Dig. Dis. Sci. 44:1458-75, 1999; Murthy et al., Aliment Pharmacol. Ther. 13:251-60, 1999; Kimura et al., Arzneimittelforschung 48:1091-96, 1998; Dieleman et al., Scand. J Gastroenterol. Suppl. 223:99-104, 1997).
Symptoms associated with the DSS model were induced as follows. Mice were patiented to a drinking water containing 5% DSS for 10 days, in the presence (n=10) or absence (n=10) of inosine treatment (200 mg/kg/day, orally). At the end of 10 days, animals were evaluated for the incidence of bloody diarrhea, for colon shortening, and colon histopathology. Colonic myeloperoxidase (MPO) and malondialdehyde (MDA) levels were measured. These parameters provide a good cross-section of the functional and inflammatory changes associated with the current model of inflammatory bowel disease.
Significant protective effect of inosine in the presence of DSS is indicated as *p<0.05, when compared to the values with DSS alone in the absence of inosine.

[7] = day 0, inosine 100 mg/kg oral gavage twice a day

## O=S(=O)(O)OC[C@H]1O[C@@H](n2cnc3c(O)ncnc32)[C@H](O)[C@@H]1O [5′-IMS, inosine 5′-monosulfate]
DSS mice [1]
  protection against colonic shortening: provided significant protection
  protection against visible histological damage: provided significant protection
  dose at which colonic MDA levels were reduced: 50 µmol/kg/day
  dose at which MDA levels were reduced (second statement, 'Similarly'): 50 µmol/kg/day
DBA/1J mice [2]; 100 or 200 mg/kg/day, BID, gavage
  severity of arthritis: significantly reduced
DBA/1J mice [2]; both dosing regimens (100 or 200 mg/kg/day, BID, gavage), day 24 post second collagen injection, reduced from 90%
  prevalence of arthritis: 25%
DBA/1J mice [3]
  levels of MIP-1α in paws: significantly reduced
  levels of TNF-α in paws: significantly reduced
DBA/1J mice [3]; p=0.09
  IL-12 levels in paws: tended to reduce
DBA/1J mice [4]
  lipid peroxidation (reflected by MDA) in joints: profoundly reduced
  neutrophil infiltration (reflected by MPO concentration) in joints: profoundly reduced

## OC[C@H]1O[C@@H](n2cnc3c(O)ncnc32)[C@H](O)[C@@H]1O [Inosine, inosine]
[5]; Inosine 10 μM, control 6.84 ± 0.39
  IL-12: 5.9 ± 0.19 ng/mL
[5]; Inosine 10 μM, control […] ± 1.89
  TNF: 10.08 ± 1.3 ng/mL
[5]; Inosine 30 μM
  IL-12: 5.1 ± 0.14 ng/mL
  TNF: 8.38 ± 0.14 ng/mL
[5]; Inosine 100 μM
  IL-12: 4.46 ± 0.62 ng/mL
  TNF: 7.61 ± 0.33 ng/mL
[5]; Inosine 300 μM
  IL-12: 4.94 ± 0.06 ng/mL
  TNF: 5.45 ± 0.52 ng/mL
[5]; Inosine 1000 μM
  IL-12: 4.34 ± 0.39 ng/mL
  TNF: 5.62 ± 0.88 ng/mL
Male BALB/c mice; FIG. 1A
  production of TNF-α (plasma): suppress
Male BALB/c mice; FIG. 1B
  production of IL-12 (plasma): suppress
Male BALB/c mice; FIG. 1C
  production of IFN-γ (plasma): suppress
Male BALB/c mice; FIG. 1D
  production of MIP-1α (plasma): suppress
Male BALB/c mice; FIG. 1E
  IL-10 production (plasma): augment
BALB/c mice
  survival rate: improved
STZ diabetic mice; 21 days, inosine treated, STZ vehicle 6 ± 1, control 68 ± 11
  Pancreatic insulin content: 21 ± 4# ng insulin/mg protein
STZ diabetic mice; [7]
  Diabetes Incidence: 0%
  Mean Blood Glucose: 95 ± 4 mg/dL
  Median Blood Glucose: 96 mg/dL
STZ diabetic mice; day 7, inosine 100 mg/kg oral gavage twice a day, STZ vehicle 8
  Diabetes Incidence: 0%
STZ diabetic mice; day 7, inosine 100 mg/kg oral gavage twice a day, STZ vehicle 137 ± 7
  Mean Blood Glucose: 112 ± 6* mg/dl
STZ diabetic mice; day 7, inosine 100 mg/kg oral gavage twice a day, STZ vehicle 146
  Median Blood Glucose: 117* mg/dl
STZ diabetic mice; day 21, inosine 100 mg/kg oral gavage twice a day, STZ vehicle 67
  Diabetes Incidence: 25* %
STZ diabetic mice; day 21, inosine 100 mg/kg oral gavage twice a day, STZ vehicle 231 ± 15
  Mean Blood Glucose: 152 ± 20* mg/dl
STZ diabetic mice; day 21, inosine 100 mg/kg oral gavage twice a day, STZ vehicle 260
  Median Blood Glucose: 130* mg/dl
DSS mice [6]; DSS alone 3.6 ± 0.4
  Gut histological damage (1-4 scale): 1.2 ± 0.4*
DSS mice [6]; DSS alone 3.7 ± 0.8
  Gut malondialdehyde levels: 2.1 ± 0.5* nmol/mg protein
DSS mice [6]; DSS alone 4.2 ± 0.1, in cm (unit assumed)
  Colonic length: 5.1 ± 0.1*
DSS mice [6]; DSS alone 20 ± 2
  Weight loss of the animals at 10 days: 13 ± 1* %
DSS mice [6]; DSS alone 90
  Incidence of rectal bleeding: 20* %
DSS mice [6]; DSS alone 296 ± 87
  Gut myeloperoxidase levels: 88 ± 14* nU/mg protein
DSS mice [1]
  protection against colonic shortening: not
  protection against visible histological damage: not
  dose at which colonic MDA levels were reduced: 100 µmol/kg/day
  dose at which MDA levels were reduced (second statement, 'Similarly'): 300 µmol/kg/day
